From paper PMC10724190, “Phytochemical screening and biological evaluation of Greek sage (Salvia fruticosa Mill.) extracts” (Scientific Reports, 2023)

How the values were obtained:
[1] = Total antioxidant activity, ABTS, DPPH and F–C tests taken together; details: reference antioxidant trolox
Method: The presented study compared the results of the three most popular spectrophotometric tests using ABTS, DPPH and Folin–Ciocalteu (F–C) reagents. ABTS and DPPH assays are used widely to determine free radical scavenging activity of extracts, as are pure compounds. For S. fruticosa extracts, the calculated antioxidant activity describes the number of ABTS or DPPH molecules reduced by antioxidants derived from 1 g of dried material after 10 min of reaction. These values were calculated in the linear range of the method and expressed as the slope of the line describing the relationship between the number of reduced millimoles of oxidants and various amounts of tested samples – as grams of dry matter in reaction mixtures (Fig. 2b).
The study also includes the method with the Folin–Ciocalteu reagent. It consists in the transfer of electrons in an alkaline environment from compounds with active hydroxyl groups to phosphomolybdic phosphotungstic acid complexes. The reducing capacity in this case was expressed as the number of millimoles of gallic acid equivalents, that formed blue complex and were derived from 1 g of dry matter of the plant. […]
The antioxidant activity of – caffeic acid, carnosic acid, carnosol, rosmarinic acid, salvianolic acid B, scutellarin and S. fruticosa extracts – was determined by spectrophotometric tests using ABTS, DPPH and Folin–Ciocalteu (F–C) reagents. […] For tests with radicals, the data were used to generate a plot of linear dependence between the different content of tested standards or S. fruticosa samples calculated as gram of dry weight present in the reaction mixtures and the number of scavenged millimoles of ABTS or DPPH radical. […] For the F–C test the results were calculated using the calibration curve of gallic acid. The antioxidant activity of the tested samples was expressed as a slope of the line that represents the relationship between the mass of standards or plant material [g] and amount of gallic acid equivalents [mmol] present in reaction mixtures after 60 min.

[2] = target: microbial XO (xanthine oxidase); assay: Xanthine oxidase inhibitory activity, HPLC-PAD monitoring of uric acid formation; assay type: biochemical; details: for IC50, mass of standard or dry weight of sample capable of reducing XO activity to 50%: 15 min preincubation, 60 min at 25 °C, xanthine substrate; for IC50: read-out: IC50 of XO inhibition as concentration
Method: The transformation of xanthine (substrate) to uric acid (product) by XO with or without the presence of tested samples was monitored with the use of HPLC-PAD at 285 nm (Fig. 3a). The enzyme activity was calculated as the percentage of the uric acid peak area formed in the presence of the tested sample compared to the control without the addition of the sample (Fig. 3b). The inhibition of the XO enzyme was expressed as an IC50 value, meaning the mass of standard or dry weight of sample (μg) capable of reducing enzyme activity to 50% (Fig. 3b,c).
The ability of – caffeic acid, carnosic acid, carnosol, rosmarinic acid, salvianolic acid B and scutellarin, as well as S. fruticosa extracts – to inhibit XO was determined. The stock solutions of xanthine (substrate) and uric acid (product) (1.5 mM) were prepared in an NaOH aqueous solution (1 M). The working solutions of these compounds (150 μM) were prepared by dilution of stock solutions with a phosphate buffer (10 mM, pH 7.7). An enzyme solution with an activity of approximately 0.5 U/mL was prepared in the same phosphate buffer. The same buffer was also used to dilute stock solutions of phytochemical standards and S. fruticosa extracts. The diluted samples with different concentrations of standard or plant extract (85 µL) were mixed with an XO solution (30 µL) and preincubated for 15 min at 25 °C, followed by the addition of 60 µL of a 150 µM xanthine solution (substrate). The mixtures were incubated for 60 min at 25 °C, then 25 µL of HCl solution (1 M) was added to stop the enzymatic reaction.
The samples were analyzed using an HPLC-PAD system (1200 series, Agilent Technologies, Wilmington, DE, USA) equipped with a Kinetex® column (150 × 4.6 mm, 5 µm, Phenomenex). A two-component mobile phase was used, in which component A was water acidified with formic acid (1%) and component B was methanol. The mobile phase was pumped at flow rate of 1 mL/min according to the gradient elution program: 0 min – 100% A, 8 min – 18% B, 12 min – 80% B, 18 min – 100% B and finally, the initial conditions were held for 5 min as a re-equilibration step. The injection volume was 30 μL. The inhibition of the XO enzyme was expressed as an IC50 value, meaning the mass of standard or dry weight of the sample (μg) that could reduce enzyme activity to 50%. Enzyme activity was calculated as the percentage of the uric acid peak area (RT 3.1 min) that was formed in the presence of extracts compared to the control sample without the addition of extracts.

Row | IC50 [2] | Molecule | Antioxidant activity compared with trolox [1] | IC50, mass of standard or dry weight of sample capable of reducing XO activity to 50% [2]
1 | 2.8 µM | O=C(O)/C=C/c1ccc(O)c(O)c1 [Caffeic acid] | more efficient than trolox | 0.1 µg
2 | 43.8 µM | O=C(/C=C/c1ccc(O)c(O)c1)O[C@H](Cc1ccc(O)c(O)c1)C(=O)O [rosmarinic acid, Rosmarinic acid] | more efficient than trolox | –
3 | – | Salvianolic acid B | more efficient than trolox | –

Row | Molecule | IC50 [2] | Antioxidant activity compared with trolox [1] | IC50, mass of standard or dry weight of sample capable of reducing XO activity to 50% [2]
4 | Oc1ncnc2[nH]ncc12 [allopurinol] | 5.5 µM | – | 0.15 µg
